Key:
Type in all cases: functional
[1] = test system: HT-29; test: Cytotoxicity against human HT-29 cells after 72 hrs by MTT assay; details: HT-29, 72 h
[2] = test system: SW480; test: Cytotoxicity against human SW480 cells after 72 hrs by MTT assay; details: SW480, 72 h
[3] = test system: MCF7; test: Cytotoxicity against human MCF7 cells after 72 hrs by MTT assay; details: MCF7, 72 h
[4] = test system: A2780; test: Cytotoxicity against human A2780 cells after 72 hrs by MTT assay; details: A2780, 72 h
[5] = Cytotoxicity against human H460 cells after 72 hrs by MTT assay; details: NCI-H460, 72 h
[6] = test system: A-431; test: Cytotoxicity against human A431 cells after 72 hrs by MTT assay; details: A-431, 72 h
[7] = test system: DU-145; test: Cytotoxicity against human DU145 cells after 72 hrs by MTT assay; details: DU-145, 72 h
[8] = Cytotoxicity against human BE(2)-C cells after 72 hrs by MTT assay
[9] = Cytotoxicity against human SJ-G2 cells after 72 hrs by MTT assay; details: SJ-G2, 72 h
[10] = Cytotoxicity against human MIA cells after 72 hrs by MTT assay
[11] = test system: HT-29; test: Cytotoxicity against human HT-29 cells at 100 uM after 72 hrs by MTT assay; details: HT-29, 72 h, read-out: GI
[12] = test system: SW480; test: Cytotoxicity against human SW480 cells at 100 uM after 72 hrs by MTT assay; details: SW480, 72 h, read-out: GI
[13] = test system: MCF7; test: Cytotoxicity against human MCF7 cells at 100 uM after 72 hrs by MTT assay; details: MCF7, 72 h, read-out: GI
[14] = test system: A2780; test: Cytotoxicity against human A2780 cells at 100 uM after 72 hrs by MTT assay; details: A2780, 72 h, read-out: GI
[15] = Cytotoxicity against human H460 cells at 100 uM after 72 hrs by MTT assay; details: NCI-H460, 72 h, read-out: GI
[16] = test system: A-431; test: Cytotoxicity against human A431 cells at 100 uM after 72 hrs by MTT assay; details: A-431, 72 h, read-out: GI
[17] = test system: DU-145; test: Cytotoxicity against human DU145 cells at 100 uM after 72 hrs by MTT assay; details: DU-145, 72 h, read-out: GI
[18] = Cytotoxicity against human BE(2)-C cells at 100 uM after 72 hrs by MTT assay; details: read-out: GI
[19] = Cytotoxicity against human SJ-G2 cells at 100 uM after 72 hrs by MTT assay; details: SJ-G2, 72 h, read-out: GI
[20] = Cytotoxicity against human MIA cells at 100 uM after 72 hrs by MTT assay; details: read-out: GI

Compound	GI50 [1]	GI50 [2]	GI50 [3]	GI50 [4]	GI50 [5]	GI50 [6]	GI50 [7]	GI50 [8]	GI50 [9]	GI50 [10]	inhibition of growth at 100 µM [11]	inhibition of growth at 100 µM [12]	inhibition of growth at 100 µM [13]	inhibition of growth at 100 µM [14]	inhibition of growth at 100 µM [15]	inhibition of growth at 100 µM [16]	inhibition of growth at 100 µM [17]	inhibition of growth at 100 µM [18]	inhibition of growth at 100 µM [19]	inhibition of growth at 100 µM [20]
N#C/C(=C/c1ccc(O)cc1)C(=O)c1ccc[nH]1	< 10 µM	< 10 µM	15 µM	< 10 µM	< 10 µM	< 10 µM	< 10 µM	< 10 µM	< 10 µM	11 µM										
N#C/C(=C\c1ccc[nH]1)c1ccccc1	41 µM	26 µM	17 µM	25 µM	81 µM	57 µM	> 100 µM	61 µM	46 µM	81 µM										
N#C/C(=C\c1ccc(O)cc1)c1ccc(Cl)c(Cl)c1	30 µM	36 µM	23 µM	20 µM	26 µM	21 µM	45 µM	22 µM	21 µM	28 µM										
N#C/C(=C\c1ccc[nH]1)c1ccc([N+](=O)[O-])cc1	25 µM	24 µM	18 µM	18 µM	32 µM	27 µM	26 µM	22 µM	24 µM	34 µM										
N#C/C(=C\c1ccc(Cl)cc1)c1ccc(Cl)c(Cl)c1	2.5 µM	5 µM	4.3 µM	4 µM	4.8 µM	4.3 µM	12 µM	4.1 µM	6.1 µM	4 µM										
N#C/C(=C\c1ccccc1)c1ccc(Cl)c(Cl)c1											56%	67%	79%	62%	36%	71%	36%	47%	72%	61%
N#C/C(=C/c1ccc(Cl)c(Cl)c1)C(=O)c1ccc[nH]1	< 10 µM	< 10 µM	14 µM	< 10 µM	< 10 µM	< 10 µM	< 10 µM	14 µM	10 µM	< 10 µM										
N#C/C(=C\c1ccc2ccccc2c1)c1ccc(Cl)c(Cl)c1	1.6 µM	2.3 µM	1.5 µM	1.8 µM	1.7 µM	1.8 µM	2.7 µM	1.9 µM	2.3 µM	2.1 µM										
CC(=O)Oc1ccc(/C=C(\C#N)c2ccc(Cl)c(Cl)c2)cc1	18 µM	27 µM	25 µM	18 µM	33 µM	25 µM	47 µM	22 µM	21 µM	38 µM										
Cc1ccc(/C=C(/C#N)C(=O)c2ccc[nH]2)cc1	14 µM	14 µM	39 µM	19 µM	11 µM	< 10 µM	< 10 µM	11 µM	20 µM	27 µM										
N#CC(Cc1ccc[nH]1)c1ccccc1 (stereo not given)											39%	40%	47%	76%	15%	20%	7%	43%	27%	30%
COc1ccc(/C=C(/C#N)C(=O)c2ccc[nH]2)cc1	< 10 µM	< 10 µM	22 µM	< 10 µM	24 µM	13 µM	< 10 µM	< 10 µM	< 10 µM	< 10 µM										
N#C/C(=C\c1ccc[nH]1)c1ccc(Cl)cc1	18 µM	22 µM	4 µM	18 µM	19 µM	23 µM	37 µM	21 µM	20 µM	38 µM										
CCCC/C=C(\C#N)c1ccc(Cl)c(Cl)c1	53 µM	68 µM	49 µM	24 µM	100 µM	88 µM	87 µM	73 µM	70 µM	95 µM										
N#C/C(=C/c1ccc(Cl)cc1)C(=O)c1ccc[nH]1	54 µM	68 µM	84 µM	75 µM	38 µM	31 µM	32 µM	63 µM	53 µM	59 µM										
